# According to patent US20050130881A1, “Single amino acid based compounds for counteracting effects of reactive oxygen species and free radicals” (priority 2001, published 2005):
# Columns and labels:
# SOD [1] = test: Upregulation of SOD in primary rat cortical cultures (Western immunoblot, laser densitometry); assay type: cell-based; details: for Upregulation (fold increase) SOD: 5 hours, relative to untreated control cultures
# Method: (§1) Primary rat cortical cultures were obtained by growing newborn rat brain cortical cells in Delbecco's modified Eagle medium supplemented with 100 units/ml of penicillin G, 100 μg/ml of streptomycin, and 10% fetal calf serum. The cells were isolated from the E-21 cortex of rat brain, plated at a density of 1×10^5 per ml and grown to confluence within four to five days in an atmosphere containing air and 5% CO2 at 37° C. as described in Cornell-Bell et al., Science, 247: 470-473 (1990) and Cell Calcium, 12: 185-204 (1991). Cultures were grown in 20 ml flasks as a monolayer and then exposed to various concentrations of L-aspartic acid for studies of the effect on upregulation of the gene for SOD. Cultures of the rat brain cortical cells were incubated with 0.00, 0.01, 0.13, 1.30, and 13.30 μg/ml L-aspartic acid for durations of 5 hours. Control cultures were treated in the same manner, but were not incubated with L-aspartic acid.
# (§2) Cytoplasmic proteins were isolated according to published methods (Adams et al., J. Leukoc. Biol., 62: 865-873 (1997)). The cell cultures were washed once in phosphate buffer saline (PBS) containing 20 mM EDTA and then suspended in 250 μl of freshly prepared lysis buffer (20 mM Hepes, pH 7.9, 10 mM KCl, 300 mM NaCl, 1 mM MgCl2, 0.1% Triton X-100 nonionic detergent, 20% glycerol, 0.5 mM dithiothreitol (DTT), freshly supplemented with inhibitors as described in Adams et al., […]., 77: 221-233 (2000)). The suspensions were then incubated for at least 10 minutes on ice to lyse cells and then centrifuged (14,000×g for 5 minutes at 4° C.) to pellet cell debris. The supernatant cytoplasmic fractions were removed and stored as aliquots at −80° C. for analysis.
# (§3) The cytoplasmic proteins were separated by SDS-PAGE using 5 μg/lane on the gels for analysis by Western immunoblots. […] SOD expression was detected in the Western blots using anti-SOD rabbit polyclonal antibody (Rockland, Inc., Gilbertville, Pa.). The Western blots were also analyzed by laser densitometry to quantify SOD protein upregulation. The control in these experiments was an identical culture flask, which was treated only with vehicle (i.e., buffer, no L-aspartic acid).
# CAT [2] = test: Upregulation of CAT in primary rat cortical cultures (Western immunoblot, laser densitometry); assay type: cell-based; details: for Upregulation (fold increase) CAT: 5 hours, relative to untreated control cultures
# Method: [The source words this procedure for another target and reports this target under the same test.] as §1, §2, §3
# SOD [3] = test: In vivo upregulation of SOD in rat brain (Western immunoblot); set-up: species or system Sprague-Dawley rats; details: for Fold Upregulation of SOD: relative to vehicle
# Method: (§4) In vivo experiments were carried out in Sprague-Dawley rats (300-325 g) with solutions of L-aspartic acid. The animals were injected intravenously (iv) via the tail vein with L-aspartic acid. Each animal received one injection of L-aspartic acid in normal saline at total dose equivalent of 0.00, 0.75, 1.50, 3.00, and 6.00 mg L-aspartic acid/kg body weight or orally by gavage at a dose equivalent of 0.00 or 60.0 mg/kg body weight. The animals were sacrificed by decapitation at 6 hours post injection and dissected to isolate the brain organs, which were frozen at −70° C. for subsequent analysis by Western immunoblots.
# (§5) Each brain tissue was thawed and homogenized in a Down's homogenizer using ten volumes of homogenizer buffer (see, Adams et al., […], 77: 221-233 (2000); buffer as described in Adams et al., J. Leukoc. Biol., 62: 865-875 ([…])) to obtain a crude cytoplasmic fraction. The brain tissue homogenates were centrifuged (14,000×g for 5 minutes at 4° C.) to yield the supernatant purified cytoplasmic protein fractions for Western immunoblot analysis as described in Adams et al. (J. Cell. Biochem., 77: 221-233 (2000)). A 10 μg sample of each protein fraction was then separated by SDS polyacrylamide gel electrophoresis (SDS-PAGE) and analyzed for SOD and CAT content by Western blot assay as above.
# (§6) Control for measurement of unstimulated levels of SOD were obtained from vehicle-only (i.e., no L aspartic acid), injected or gavaged rats that were sacrificed at 6 hours post injection. […] Standard quantities of each cytoplasmic fraction (10 μg) were loaded on a lane of a gel for electrophoretic separation and Western immunoblot analysis (Adams et al., J. Cell. Biochem., 77: 221-233 (2000)). The stained gels were photographed and scanned by laser densitometry to quantify intensities in comparison to enzyme levels for control vehicle treated rats.
# (§7) The data are expressed as a fold increase relative to control animals that received vehicle only. Intravenous (i.v.) injections were administered as 0.3 ml in normal saline during five minutes. Oral doses were administered as a solution in 1 ml saline by gavage.
# CAT [4] = test: In vivo upregulation of CAT in rat brain (Western immunoblot); set-up: species or system Sprague-Dawley rats; details: for Fold Upregulation of CAT: relative to vehicle
# Method: as §4, §5, §6, §7
# Sprague-Dawley rats = test: In vivo observations of toxicity and behaviour after dosing; details: 60 mg/Kg oral, rat
# Method: as §4
# At 6 mg/Kg, upregulation of CAT became higher than SOD. The compound is also active orally, but in that case, a dose of 60 mg/Kg must be used in the rat to see an effect.
# [5] = system: primary rat cortical cultures; test: Tissue culture properties of primary rat cortical cultures; assay type: cell-based; details: low doses of up to 10 ng/ml in culture
# [6] = 0.75 mg/kg i.v., rat brain, 6 hours post injection
# [7] = 1.50 mg/kg i.v., rat brain, 6 hours post injection
# [8] = 3.00 mg/kg i.v., rat brain, 6 hours post injection
# [9] = 6.00 mg/kg i.v., rat brain, 6 hours post injection
# [10] = 60.00 mg/kg oral (gavage), rat brain, 6 hours
compound,measurement,setting,value
"N[C@@H](CC(=O)O)C(=O)O [Aspartic Acid, L-aspartic acid]",Upregulation (fold increase) SOD,SOD [1]; 0.01 μg/ml,1.0 fold increase
same,SOD upregulation,SOD [1]; 130 ng/ml,upregulation of SOD
same,Upregulation (fold increase) SOD,SOD [1]; 0.13 μg/ml,1.6 fold increase
same,SOD upregulation,SOD [1]; 1.3 μg/ml,upregulated
same,Upregulation (fold increase) SOD,SOD [1]; 1.30 μg/ml,2.1 fold increase
same,SOD increase by Western blot,SOD [1]; 13.3 μg/ml,substantial increase
same,Upregulation (fold increase) SOD,SOD [1]; 13.30 μg/ml,3.5 fold increase
same,effect on SOD upregulation,SOD [1]; low doses of up to 10 ng/ml in culture,no effect
same,Upregulation (fold increase) CAT,CAT [2]; 0.01 μg/ml,1.0 fold increase
same,Upregulation (fold increase) CAT,CAT [2]; 0.13 μg/ml,1.0 fold increase
same,CAT upregulation,CAT [2]; 1.3 μg/ml,upregulated
same,Upregulation (fold increase) CAT,CAT [2]; 1.30 μg/ml,2.3 fold increase
same,Upregulation (fold increase) CAT,CAT [2]; 13.30 μg/ml,3.7 fold increase
same,Fold Upregulation of SOD,SOD [3]; [6],1.0 fold
same,Fold Upregulation of SOD,SOD [3]; [7],1.0 fold
same,Fold Upregulation of SOD,SOD [3]; [8],1.3 fold
same,Fold Upregulation of SOD,SOD [3]; [9],1.3 fold
same,Fold Upregulation of SOD,SOD [3]; [10],2.9 fold
same,i.v. dose that must be injected before upregulation of SOD is observed,"SOD [3]; i.v., rat brain",3 mg/kg
same,oral dose that must be used to see an effect (SOD upregulation),"SOD [3]; oral, rat",60 mg/kg
same,Fold Upregulation of CAT,CAT [4]; [6],1.0 fold
same,Fold Upregulation of CAT,CAT [4]; [7],1.0 fold
same,Fold Upregulation of CAT,CAT [4]; [8],1.2 fold
same,Fold Upregulation of CAT,CAT [4]; [9],2.5 fold
same,Fold Upregulation of CAT,CAT [4]; [10],3.5 fold
same,i.v. dose that must be injected before upregulation of CAT is observed,"CAT [4]; i.v., rat brain",3 mg/kg
same,oral dose that must be used to see an effect (CAT upregulation),"CAT [4]; oral, rat",60 mg/kg
same,toxic effect,Sprague-Dawley rats,no toxic effect
same,effect on any aspects of tissue culture properties,[5],no effect
